The source of these data is ChEMBL document CHEMBL2073760, “Efflux transport of a new quinolone antibacterial agent, HSR-903, across the blood-brain barrier” (J Pharmacol Exp Ther, 1999).

The data set addresses ATP-dependent translocase ABCB1 (Mus musculus, UniProt P21447). Kind of data set: TP_TRANSPORTER: increase in brain concentration in mdr1a(-/-) mouse. Particulars: in vivo. It is filed as functional, organism-based.

Molecules are shown by their SMILES.

Chain of ATP-dependent translocase ABCB1 (P21447 whole entry): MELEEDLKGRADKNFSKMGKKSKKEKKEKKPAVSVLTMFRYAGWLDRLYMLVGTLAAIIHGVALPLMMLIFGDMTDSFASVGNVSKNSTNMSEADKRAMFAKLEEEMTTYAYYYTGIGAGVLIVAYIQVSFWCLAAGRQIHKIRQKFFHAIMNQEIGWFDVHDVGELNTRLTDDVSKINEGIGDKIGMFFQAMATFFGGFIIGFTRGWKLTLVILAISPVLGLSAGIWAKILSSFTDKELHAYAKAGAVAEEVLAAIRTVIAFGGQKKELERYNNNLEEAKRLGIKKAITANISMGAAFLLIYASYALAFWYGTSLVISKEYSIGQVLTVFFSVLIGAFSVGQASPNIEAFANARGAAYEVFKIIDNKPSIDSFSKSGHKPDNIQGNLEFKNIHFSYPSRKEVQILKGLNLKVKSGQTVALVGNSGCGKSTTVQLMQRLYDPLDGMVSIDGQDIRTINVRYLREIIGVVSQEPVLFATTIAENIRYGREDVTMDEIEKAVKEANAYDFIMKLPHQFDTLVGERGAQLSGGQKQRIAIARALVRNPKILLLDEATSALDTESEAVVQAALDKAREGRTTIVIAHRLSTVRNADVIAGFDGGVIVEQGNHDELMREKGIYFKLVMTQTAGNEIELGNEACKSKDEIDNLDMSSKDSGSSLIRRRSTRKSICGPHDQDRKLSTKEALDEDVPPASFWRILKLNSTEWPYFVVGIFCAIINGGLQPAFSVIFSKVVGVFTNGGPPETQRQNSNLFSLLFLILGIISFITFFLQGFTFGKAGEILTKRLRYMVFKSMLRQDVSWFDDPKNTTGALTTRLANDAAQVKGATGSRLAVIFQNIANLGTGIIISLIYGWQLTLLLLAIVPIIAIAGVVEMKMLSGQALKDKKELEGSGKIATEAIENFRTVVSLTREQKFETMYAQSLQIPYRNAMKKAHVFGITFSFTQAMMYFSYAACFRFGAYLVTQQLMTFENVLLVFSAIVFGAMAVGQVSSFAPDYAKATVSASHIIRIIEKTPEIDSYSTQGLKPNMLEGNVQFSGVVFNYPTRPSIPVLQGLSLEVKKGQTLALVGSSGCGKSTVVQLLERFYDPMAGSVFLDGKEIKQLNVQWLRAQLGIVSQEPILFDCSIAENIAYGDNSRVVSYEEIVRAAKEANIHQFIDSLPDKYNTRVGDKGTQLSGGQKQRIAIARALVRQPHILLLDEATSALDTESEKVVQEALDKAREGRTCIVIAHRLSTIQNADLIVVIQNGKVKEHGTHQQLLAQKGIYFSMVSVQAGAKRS

As to `CS(=O)(=O)O.Cc1c(N2C[C@@H](N)C3(CC3)C2)c(F)c(N)c2c(=O)c(C(=O)O)cn(C3CC3)c12`, the Activity entry is “substrate [+]”.
